Among the data in PubChem BioAssay (NCI) are TGI and GI50 values, retold here.

Test systems include MALME-3M melanoma; SK-MEL-2 melanoma; NCI-H226 lung; K-562 leukemia; COLO 205 colon; A549 NSCLC; IGROV1 ovarian; CCRF-CEM leukemia.
Assay in all cases: DTP human tumour cell line panel, 48 h

Broadly, the TGI is the concentration giving total growth inhibition. High values mean lower sensitivity of the cells, low ones greater sensitivity of the cells. One may read the GI50 as the concentration that inhibits growth by half.

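How tested: cells in 96-well plates exposed to compound for 48 hours at five concentrations. Here, GI50 denotes the concentration required for 50% inhibition of growth. The concentration for full growth arrest is given as TGI.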

Regarding `Nc1ncnc2sc(Nc3ccccc3)nc12`, the TGI with MALME-3M melanoma, with SK-MEL-2 melanoma, in the experiment with NCI-H226 lung, in the experiment on K-562 leukemia, with COLO 205 colon and in the experiment with A549 NSCLC was above 100 µM each time. The same compound yielded a TGI in the experiment on IGROV1 ovarian above 100 µM.

Take `C=C(C)[C@@H]1CC[C@]2(C(=O)n3ccnc3)CC[C@]3(C)[C@H](CC[C@@H]4[C@@]5(C)CCCNC(C)(C)[C@@H]5CC[C@]43C)[C@@H]12`: the GI50 is 1.31 µM with MALME-3M melanoma; 2.23 µM with NCI-H226 lung; 1.52 µM in the experiment with COLO 205 colon; 1.88 µM in the experiment on CCRF-CEM leukemia; 1.94 µM in the experiment with A549 NSCLC; 1.58 µM in the experiment with IGROV1 ovarian. The concentration for total growth inhibition (TGI) with MALME-3M melanoma was 2.86 µM; in the experiment on NCI-H226 lung, 4.8 µM; in the experiment with COLO 205 colon, 3.25 µM; with CCRF-CEM leukemia it was 4.48 µM; in the experiment on A549 NSCLC, 3.62 µM; in the experiment on IGROV1 ovarian, 3.27 µM.

Regarding `NC(=O)C(=O)Cc1nc2ccccc2s1`, the TGI with MALME-3M melanoma, in the experiment with SK-MEL-2 melanoma, in the experiment on NCI-H226 lung, in the experiment on K-562 leukemia, in the experiment with COLO 205 colon and with CCRF-CEM leukemia was above 100 µM each time. Further, in the experiment with A549 NSCLC, the TGI was above 100 µM.

`CC1(C)OC2OC(COC(=O)C(c3ccccc3)c3ccccc3)C3OC(C)(C)OC3C2O1` (configuration not stated): the TGI in the experiment with MALME-3M melanoma, in the experiment on SK-MEL-2 melanoma, in the experiment with NCI-H226 lung, in the experiment on K-562 leukemia, in the experiment on COLO 205 colon and in the experiment with CCRF-CEM leukemia was above 100 µM in each case. Further, the TGI in the experiment with A549 NSCLC and in the experiment with IGROV1 ovarian was above 100 µM in each case. In addition, the GI50 in the experiment on NCI-H226 lung and in the experiment on IGROV1 ovarian was above 100 µM in each case.

In the case of `COc1ccc2nc(-c3ccc(O)cc3)ccc2c1`, the TGI with MALME-3M melanoma, with NCI-H226 lung, with K-562 leukemia, with COLO 205 colon, with CCRF-CEM leukemia and in the experiment with A549 NSCLC was above 100 µM each time. The total growth inhibition concentration (TGI) with IGROV1 ovarian is above 100 µM.

Regarding `Cn1cc(NC(=O)c2cc(NC(=O)CCCCCCCC(=O)Nc3cc(C(=O)Nc4cc(C(=O)NCCC(=N)N)n(C)c4)n(C)c3)cn2C)cc1C(=O)NCCC(=N)N`, the TGI in the experiment with MALME-3M melanoma was 20.1 µM; in the experiment with SK-MEL-2 melanoma, 27.9 µM; with K-562 leukemia it was above 100 µM; in the experiment with COLO 205 colon it was 26 µM; in the experiment with CCRF-CEM leukemia, 86.1 µM; in the experiment with A549 NSCLC, 36.8 µM. For the same compound, in the experiment on IGROV1 ovarian, the TGI came to 25.3 µM.

On to `Cc1csc(CCC(N)C(=O)O)n1` (configuration not stated), for which the total growth inhibition concentration (TGI) with MALME-3M melanoma, with NCI-H226 lung, with K-562 leukemia, in the experiment on COLO 205 colon, in the experiment on CCRF-CEM leukemia and with A549 NSCLC was above 100 µM each time. The compound further returned a TGI in the experiment with IGROV1 ovarian above 100 µM.

Take `C1CCN2CC3CONC3C2C1` (configuration not stated): the TGI with MALME-3M melanoma, in the experiment on SK-MEL-2 melanoma, in the experiment on NCI-H226 lung, with K-562 leukemia, with COLO 205 colon and in the experiment with CCRF-CEM leukemia was above 100 µM in each case. Further, the TGI in the experiment on A549 NSCLC and in the experiment on IGROV1 ovarian was above 100 µM in each case.

Turning to `CC1(C)CC(O)CC(C)(C)N1.CC1(C)CC(O)CC(C)(C)N1.CC1(C)CC(O)CC(C)(C)N1.CC1(C)CC(O)CC(C)(C)N1.Cl.[Ti]`, the GI50 in the experiment with SK-MEL-2 melanoma, with NCI-H226 lung, with K-562 leukemia, in the experiment with COLO 205 colon, with CCRF-CEM leukemia and in the experiment with IGROV1 ovarian was above 100 µM throughout. Besides, the TGI with SK-MEL-2 melanoma, in the experiment on NCI-H226 lung, with K-562 leukemia, in the experiment with COLO 205 colon, in the experiment on CCRF-CEM leukemia and in the experiment on IGROV1 ovarian was above 100 µM each time.

For the compound `CC(C)(C)c1cc(C(OCCl)(C(F)(F)F)C(F)(F)F)c2c(c1)C(C(F)(F)F)(C(F)(F)F)OC21c2ccccc2C(=O)c2ccccc21`, the TGI in the experiment with MALME-3M melanoma, in the experiment on SK-MEL-2 melanoma, in the experiment with NCI-H226 lung, with K-562 leukemia, in the experiment on COLO 205 colon and in the experiment on A549 NSCLC was above 100 µM in each case.

Regarding `C1=C(c2ccccc2)C(OC2Oc3ccccc3C=C2c2ccccc2)Oc2ccccc21` (configuration not stated), the TGI with MALME-3M melanoma, in the experiment on SK-MEL-2 melanoma, with NCI-H226 lung, in the experiment on K-562 leukemia, in the experiment on COLO 205 colon and in the experiment on CCRF-CEM leukemia was above 100 µM throughout. The TGI in the experiment on A549 NSCLC and with IGROV1 ovarian was above 100 µM throughout.

For `Nc1c(-c2nc3ccccc3s2)[n+]([O-])c2ccccc2[n+]1[O-]`, the TGI is 91.7 µM in the experiment on MALME-3M melanoma; 74.9 µM with SK-MEL-2 melanoma; above 100 µM with NCI-H226 lung; above 100 µM with K-562 leukemia; above 100 µM with COLO 205 colon; above 100 µM in the experiment with CCRF-CEM leukemia. Moreover, the TGI in the experiment on A549 NSCLC and in the experiment with IGROV1 ovarian was above 100 µM in each case.

As for `O=C(CCC(=O)C1Cc2ccccc2C1=O)Nc1cccc(C(F)(F)F)c1` (configuration not stated), the TGI in the experiment with MALME-3M melanoma, in the experiment with SK-MEL-2 melanoma, in the experiment on NCI-H226 lung, in the experiment on K-562 leukemia, in the experiment on COLO 205 colon and in the experiment with CCRF-CEM leukemia was above 100 µM throughout. Further, the TGI with A549 NSCLC and in the experiment on IGROV1 ovarian was above 100 µM in each case.

Take `Nc1c(C(=O)Nc2ccccc2O)[n+]([O-])c2ccccc2[n+]1[O-]`: the TGI in the experiment on MALME-3M melanoma, with SK-MEL-2 melanoma, in the experiment on NCI-H226 lung, in the experiment with K-562 leukemia, with COLO 205 colon and in the experiment with A549 NSCLC was above 100 µM throughout. In the experiment with IGROV1 ovarian, this compound showed a TGI above 100 µM.

For `O=c1c2cccc3cccc(c4n1CCCN=4)c32`, the TGI in the experiment on MALME-3M melanoma, in the experiment with SK-MEL-2 melanoma, with NCI-H226 lung, in the experiment with K-562 leukemia, in the experiment on COLO 205 colon and in the experiment with CCRF-CEM leukemia was above 100 µM in each case. Further, the TGI with A549 NSCLC and in the experiment with IGROV1 ovarian was above 100 µM throughout.
